Experimental data reported in patent publication US6544511B2, “Plant disease control agent” (Akatsuka Orchid Co., Ltd., priority 2000, dated 2003).
Numbered stars: 1 amine (or outer) side, 2 acyl side, 3 side chain; on linkers, the order of the positions; unused ones are H or OH. Bridge positions count the residues as written; N and C are the ends. Square brackets hold non-standard residues; d marks the D form. Peptide text beside a SMILES is read from it. I, II: the chains in the order shown. Actinocin(9to1) = Cc1c2oc3c(C)ccc(C(=O)[*:1])c3nc-2c(C(=O)[*:2])c(N)c1=O; NMeV = CN[C@H](C(=O)O)C(C)C; Sar = CNCC(=O)O

Legend:
[1] = system: Pestalotiopsis sydowiana MAFF No. 305755; experiment: Antibiotic sensitivity test for pathogenic filamentous fungi (mycelial mat diameter); format: cell-based; details: for Sensitivity of Pestalotiopsis sydowiana against antibiotic: 0.1, 1, 10 μg/ml in potato sucrose agar medium, 3 days (FIGS. 12, 13)
Procedure: (§1) Pathogenic filamentous fungi were tested for their sensitivity against antibiotics belonging to actinomycin and polyen anti-fungal antibiotics shown to be produced by R-5 strain. First, actinomycin D or amphotericin B (polyen anti-fungal antibiotic) was dissolved to concentrations of 0.1, 1, and 10 μg/mil in potato sucrose agar medium cooled to about 45° C., and solidified. Mycelial disks with a diameter of 6 mm, which had been stamped out from mycelial mats of Phytophthora cinnamomi MAFF No. 305565 or Pestalotiopsis sydowiana MAFF No. 305755 pre-cultured for 7 days on potato sucrose agar medium, were inoculated onto the potato sucrose agar medium solidified as described above. Each diameter of the mycelial mats was measured with time for 3 days.

[2] = system: Phytophthora cinnamomi MAFF No. 305565; experiment: as above; format: cell-based; details: for Sensitivity of Phytophthora cinnamomi against antibiotic: 0.1, 1, 10 μg/ml in potato sucrose agar medium, 3 days (FIGS. 10, 11)
Procedure: as §1

## Cc1c2oc3c(C)ccc(C(=O)N[C@@H]4C(=O)N[C@H](C(C)C)C(=O)N5CCC[C@H]5C(=O)N(C)CC(=O)N(C)[C@@H](C(C)C)C(=O)O[C@@H]4C)c3nc-2c(C(=O)N[C@@H]2C(=O)N[C@H](C(C)C)C(=O)N3CCC[C@H]3C(=O)N(C)CC(=O)N(C)[C@@H](C(C)C)C(=O)O[C@@H]2C)c(N)c1=O [actinomycin D] (I: T[dV]P[Sar][NMeV] / II: T[dV]P[Sar][NMeV]; ester I:1-I:C, II:1-II:C; linker I:N-II:N via Actinocin(9to1))
[1]; 10 μg/ml
  Growth of the mycelia of Pestalotiopsis sydowiana: significantly suppressed the growth
[1]
  Sensitivity of Pestalotiopsis sydowiana against antibiotic: weak sensitivity
[2]; 10 μg/ml
  Growth of the mycelial mat of Phytophthora cinnamomi: completely stopped the growth
[2]
  Sensitivity of Phytophthora cinnamomi against antibiotic: showed sensitivity

## C[C@@H]1[C@H](O)[C@@H](C)/C=C/C=C/C=C/C=C/C=C/C=C/C=C/[C@H](O[C@@H]2O[C@H](C)[C@@H](O)[C@H](N)[C@@H]2O)C[C@@H]2O[C@](O)(C[C@@H](O)C[C@@H](O)[C@H](O)CC[C@@H](O)C[C@@H](O)CC(=O)O[C@H]1C)C[C@H](O)[C@H]2C(=O)O [amphotericin B]
[1]; 0.1 μg/ml
  Growth of the mycelia of Pestalotiopsis sydowiana: completely suppressed the growth of the mycelia
[1]
  Sensitivity of Pestalotiopsis sydowiana against antibiotic: high sensitivity
[2]
  Sensitivity of Phytophthora cinnamomi against antibiotic: almost no sensitivity
